In brackets after ≈: the same amount, converted by molar mass. One block for each compound: values may come before it.
Assays:
[1] = tested on: Escherichia fergusonii (CU928158.2); test: Antibacterial well diffusion; type: cell-based; details: 10 µL per well, mean ± SD
Text: (§1) (CP017183.1), Escherichia fergusonii (CU928158.2), and Pseudomonas aeruginosa (NR-117678.1) and Gram-positive Staphylococcus aureus (CP011526.1) and Bacillus licheniformis (KX785171.1) using well diffusion and broth microdilution techniques as described by Berghe and […] [16]. The bacterial strains were suspended in a nutrient broth for 24 hr, and the suspension then spread on Mueller-Hinton agar. […] Amikacin was used as the positive control.

[2] = tested on: Escherichia fergusonii (CU928158.2); test: Antibacterial broth microdilution (MIC); type: cell-based; details: read-out: MIC, E. fergusonii
Text: as §1

[3] = tested on: iNOS; test: iNOS inhibition, nitrite level in LPS-treated macrophages (Griess); type: cell-based, mouse
Description: Mouse macrophage (RAW264.7) cells were seeded in the wells of 96-well plates followed by 24 hrs for confluency according to the method described previously. The test samples were treated with LPS (5 μg/mL) and followed by 24-hour incubation as well. The nitrite level in cell supernatant was measured by Griess reagent. The dose response curves gave indication for IC50 values. Parthenolide was used as positive control.

[4] = tested on: four cancerous cell lines as well as the two normal cell lines; test: Cytotoxicity, whole panel; type: cell-based; details: all cell lines
Description: (§2) Four human cancer cell lines (SK-OV-3, SK-MEL, BT-549 and KB) and two noncancerous kidney cell lines (VERO and LLC-PK1) were measured in the in vitro cytotoxic study. Test samples were added on the cell lines with variable concentrations, followed by 48 h incubation. According to the Borenfreund method, the cell viability was determined at the end of incubation, using doxorubicin as a positive control.

[5] = tested on: HepG2 cells; test: Cellular antioxidant assay (decrease in oxidative stress, ABAP); type: cell-based, human; details: at 250 µg/mL for pure compounds
Description: Human hepatoma cell line (HepG2) was the cell line of choice in this study according to the previously described method. At a density of 60,000 cells/well, the HepG2 cells were seeded in a 96-well plate and incubated for 24 h for confluency. PBS was used for washing the cells, followed by samples treatment. The SpectraMax plate reader was used for reading the plates after addition of 600 μM of ABAP. The area under the curve (AUC) of fluorescence units and time were two parameters used for indication of the percent decrease in oxidative stress. Percent decrease in oxidative stress = 100 − ((AUC sample/AUC control) × 100). Quercetin was used as a positive control.

[6] = molecular target: T1, PPARα (Homo sapiens, UniProt Q07869); test: PPARα reporter gene assay (luciferase fold induction); type: cell-based; details: for PPAR alpha agonistic activity, fold induction: dual activation
T1 construct: expressed in transfected cells
T1 sequence (Q07869 1-468): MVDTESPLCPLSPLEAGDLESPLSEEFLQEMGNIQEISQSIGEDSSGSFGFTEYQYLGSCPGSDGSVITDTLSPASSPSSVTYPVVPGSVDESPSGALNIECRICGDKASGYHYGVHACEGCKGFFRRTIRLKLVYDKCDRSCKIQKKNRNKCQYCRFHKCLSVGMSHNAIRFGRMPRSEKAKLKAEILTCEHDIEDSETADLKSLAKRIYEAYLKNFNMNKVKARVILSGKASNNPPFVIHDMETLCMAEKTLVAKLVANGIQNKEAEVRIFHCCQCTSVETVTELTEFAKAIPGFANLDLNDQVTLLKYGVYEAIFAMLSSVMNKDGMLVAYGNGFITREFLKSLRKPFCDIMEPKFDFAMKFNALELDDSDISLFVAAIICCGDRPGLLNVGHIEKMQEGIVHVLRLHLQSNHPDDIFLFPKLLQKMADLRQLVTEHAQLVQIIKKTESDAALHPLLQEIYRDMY
Description: (§3) A reporter gene assay was carried out as described previously. Briefly, upon confluency, the different concentrations of the test samples were exposed to transfected cells for 24 hrs. Vehicle control was taken into consideration when the fold induction in luciferase activity was calculated. Both rosiglitazone and ciprofibrate were used as control drugs for PPARα and PPARγ, respectively.
(§4) Fold induction in the PPAR activity was detected in response to the methanol fraction and pure compounds according to untreated controls. A fold induction of 1.5 means a 50% increase in PPAR activity. […] Several studies have been carried out with the aim of exploring the potential of selective PPARγ modulators. The dual activator effect of P2 is in agreement with previous literature.

[7] = tested on: LLC-PK11; test: Cytotoxicity assay (Borenfreund method, 48 h); type: cell-based; details: NA = no cytotoxic activity upto 100 µg/mL, read-out: Noncancer cells IC50, LLC-PK11
Description: as §2

[8] = molecular target: T2, PPARγ (Homo sapiens, UniProt P37231); test: PPARγ reporter gene assay (luciferase fold induction); type: cell-based; details: for PPAR gamma agonistic activity, fold induction: dual activation
T2 construct: expressed in transfected cells
T2 sequence (P37231 1-505): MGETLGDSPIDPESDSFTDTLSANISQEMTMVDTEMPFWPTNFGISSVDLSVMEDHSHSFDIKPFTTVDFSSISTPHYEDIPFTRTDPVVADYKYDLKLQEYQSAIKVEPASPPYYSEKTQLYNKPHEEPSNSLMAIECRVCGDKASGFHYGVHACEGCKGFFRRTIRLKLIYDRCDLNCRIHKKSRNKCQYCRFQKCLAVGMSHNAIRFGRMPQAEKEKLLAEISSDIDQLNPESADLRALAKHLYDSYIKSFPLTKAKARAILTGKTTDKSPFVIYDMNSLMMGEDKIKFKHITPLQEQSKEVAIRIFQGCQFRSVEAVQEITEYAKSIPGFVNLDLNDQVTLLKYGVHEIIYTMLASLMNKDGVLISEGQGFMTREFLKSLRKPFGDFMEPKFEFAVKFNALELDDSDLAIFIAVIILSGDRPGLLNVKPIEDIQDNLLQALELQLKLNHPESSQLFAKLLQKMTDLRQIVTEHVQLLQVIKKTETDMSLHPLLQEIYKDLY
Description: as §3, §4

[9] = tested on: Pseudomonas aeruginosa (ATCC 27853); test: Antibacterial well diffusion; type: cell-based; details: 10 µL per well, mean ± SD
Text: as §1

[10] = tested on: Klebsiella pneumonia (ATCC 700603); test: Antibacterial well diffusion; type: cell-based; details: 10 µL per well, mean ± SD
Text: as §1

[11] = tested on: Staphylococcus aureus; test: Antibacterial well diffusion; type: cell-based; details: 10 µL per well, mean ± SD
Text: as §1

[12] = tested on: Pseudomonas aeruginosa (ATCC 27853); test: Antibacterial broth microdilution (MIC); type: cell-based; details: ATCC27853, read-out: MIC, P. aeruginosa
Text: as §1

[13] = tested on: Klebsiella pneumonia (ATCC 700603); test: Antibacterial broth microdilution (MIC); type: cell-based; details: Klebsiella pneumoniae, ATCC700603, read-out: MIC, K. pneumonia
Text: as §1

[14] = tested on: Staphylococcus aureus; test: Antibacterial broth microdilution (MIC); type: cell-based; details: read-out: MIC, S. aureus
Text: as §1

[15] = tested on: Bacillus cereus (ATCC 14579); test: Antibacterial well diffusion; type: cell-based; details: 10 µL per well, mean ± SD
[16] = tested on: Bacillus cereus (ATCC 14579); test: Antibacterial broth microdilution (MIC); type: cell-based; details: ATCC14579, read-out: MIC, B. cereus

MIC [2]: 11 mg/L (≈ 37.9 µM)
IC50 ([3]; Mus musculus, RAW264.7, LPS 5 µg/mL, 24 h, NA = no activity up to 100 µg/mL): > 50 mg/L
fold induction at 12.5 µg/mL ([6]; 12.5 µg/mL, 24 hrs, NA = not active, read-out: Fold induction PPAR alpha): 1.19
fold induction at 25 µg/mL ([6]; 25 µg/mL, 24 hrs, NA = not active, read-out: Fold induction PPAR alpha): 1.31
fold induction at 50 µg/mL ([6]; 50 µg/mL, 24 hrs, NA = not active, read-out: Fold induction PPAR alpha): 1.47
PPAR alpha agonistic activity, fold induction [6]: ≥ 1.5 fold
fold induction at 12.5 µg/mL ([8]; 12.5 µg/mL, 24 hrs, NA = not active, read-out: Fold induction PPAR gamma): 1.19
fold induction at 25 µg/mL ([8]; 25 µg/mL, 24 hrs, NA = not active, read-out: Fold induction PPAR gamma): 1.55
fold induction at 50 µg/mL ([8]; 50 µg/mL, 24 hrs, NA = not active, read-out: Fold induction PPAR gamma): 1.53
PPAR gamma agonistic activity, fold induction [8]: ≥ 1.5 fold
SMILES: Oc1cc(O)c2c(c1)O[C@@H](c1ccc(O)c(O)c1)[C@H](O)C2 [Compound P2, (-)-catechin]
ZOI diameter, E. fergusonii [1]: 8 ± 1 mm
iNOS inhibition (in words) [3]: showed iNOS inhibition
Cytotoxicity (in words) [4]: not cytotoxic
% decrease in oxidative stress [5]: 39%
IC50 [7]: 16 mg/L (≈ 55.1 µM)

MIC [2]: 4.5 mg/L (≈ 7.68 µM)
MIC [12]: 8 mg/L (≈ 13.7 µM)
MIC [13]: 5 mg/L (≈ 8.54 µM)
MIC [14]: 6.2 mg/L (≈ 10.6 µM)
MIC [16]: 7.3 mg/L (≈ 12.5 µM)
SMILES: NCC[C@H](O)C(=O)N[C@@H]1C[C@H](N)[C@@H](O[C@H]2O[C@H](CN)[C@@H](O)[C@H](O)[C@H]2O)[C@H](O)[C@H]1O[C@H]1O[C@H](CO)[C@@H](O)[C@H](N)[C@H]1O [AMK, Amikacin, reference compound]
ZOI diameter, E. fergusonii [1]: 24 ± 1.5 mm
ZOI diameter, P. aeruginosa [9]: 18 ± 1.3 mm
ZOI diameter, K. pneumonia [10]: 25 ± 0.8 mm
ZOI diameter, S. aureus [11]: 24 ± 1 mm
ZOI diameter, B. cereus [15]: 20 ± 0.9 mm

fold induction at 10 µM ([6]; control drug at 10 µM, read-out: Fold induction PPAR alpha): 2.2
SMILES: CC(C)(Oc1ccc(C2CC2(Cl)Cl)cc1)C(=O)O (stereo not shown) [Ciprofibrate, reference compound]

PPAR alpha agonistic activity, fold induction [6]: no PPAR agonistic activity
PPAR gamma agonistic activity, fold induction [8]: no PPAR agonistic activity
SMILES: O=C(Oc1cc(O)cc2c1C[C@@H](O)[C@H](c1ccc(O)c(O)c1)O2)c1cc(O)c(O)c(O)c1 [Compound P3, 2S,3R-3,3′,4′,5,7-pentahydroxyflavane-5-O-gallate]
iNOS inhibition (in words) [3]: did not show any
Cytotoxicity (in words) [4]: not cytotoxic
% decrease in oxidative stress [5]: 57%

From publication PMC6444227, “Pharmacological Evaluation of Secondary Metabolites and Their Simultaneous Determination in the Arabian Medicinal Plant Plicosepalus curviflorus Using HPTLC Validated Method” (Journal of Analytical Methods in Chemistry, 2019)
